Measured values taken from US11339124B2, “3-(benzylamino)-4-(cyclohexylamino)-n-(2-(piperazin-1-yl)ethyl)benzenesulfonamide derivatives and related ferrostatin-1 analogues as cell death inhibitors for treating e.g. stroke” (VIB VZW, priority 2018, dated 2022).
Values joined by “and” are separate entries in the source; they are usually repeats but may differ in a detail not shown here. Equal values may be shown once. “Also recorded” adds a separate entry of the source. Read-outs that look alike come from different tables or passages of the source. Marks after values point to notes of the source that are not given here.

Experiments:
[1] = Tissue distribution in rats 24 h after iv dose; format: in vivo; conditions: rat, 5 mg/kg iv; for concentration at 24 h: male, Wistar, iv
Description: To assess the extent of tissue distribution of compound 39, various organs (liver, kidney and lungs) of all three rats were collected on ice at necropsy 24 hours after administration before being homogenized and analyzed.
Each rat received an iv dose at 5 mg/kg and the internal organs were collected at narcopsy at 24 h. The organs were homogenized and further processed by protein precipitation (n=3) and centrifugation. Analysis of the samples was conducted by LC-MS.
Tissues (liver, kidneys and lungs) were collected on ice at necropsy at 24 h (after prior exsanguination), homogenized using a gentle MACS™ Dissociator and stored at −80° C. until analysis. The tissue samples for LC-MS were further processed by protein precipitation (n=3) by diluting 20 μL of the homogenate with 80 μL ACN containing IS (tolbutamide). After centrifugation, the supernatant was further diluted in the appropriate solvent.

[2] = tested on: experimental autoimmune encephalomyelitis model; experiment: Experimental autoimmune encephalomyelitis (EAE) model, therapeutic intervention; format: in vivo; conditions: C57BL/6N male mice, daily ip from clinical score 2, scale 0 to 6 (FIG. 6); Hydrochloride
Description: 9-10-week-old C57BL/6N male mice were immunized subcutaneously with an emulsion of (MOG) 35-55 peptide (10 mg/kg) and CFA supplemented with Mycobacterium tuberculosis H37RA (50 mg/kg). The mice received an intraperitoneal injection of pertussis toxin (5 ug/kg) at the time of immunization and 48 h later. In a therapeutic procedure, mice that reached the clinical sore of 2 were injected intraperitoneally every day with equimolar amounts of Fer-1, compound 39, Liproxtatin-1 or vehicle (˜1-mg/kg) and were scored daily. Clinical signs of disease were scored on a scale of 0 to 6, as follows: 0, normal; 1, weakness of tail; 2, complete loss of tail tonicity; 3, partial hind limb paralysis; 4, complete hind limb paralysis; 5, forelimb paralysis or moribund; and 6, death (McGuire C et al (2013) J. Immunol. 190(6): 2896).
Experimental autoimmune encephalomyelitis (EAE) is an experimental mouse for multiple sclerosis.

[3] = after 24 h, one value per rat, Hydrochloride, 5 mg/kg

## Cl.O=S(=O)(NCCN1CCNCC1)c1ccc(NC2CCCCC2)c(NCc2ccccc2)c1 [Compound 39, 3-(benzylamino)-4-(cyclohexylamino)-N-(2-(piperazin-1-yl)ethyl)benzenesulfonamide Hydrochloride]
[1]; kidney, 5 mg/kg, after 24 h, one value per rat, read-out: Tissue distribution, Kidney
  concentration at 24 h: 200 ng/g
[1]; liver, 5 mg/kg, after 24 h, one value per rat, read-out: Tissue distribution, Liver
  concentration at 24 h: 230 ng/g
[1]; lung, 5 mg/kg, after 24 h, one value per rat, read-out: Tissue distribution, Lung
  concentration at 24 h: 480 ng/g
[1]; 24 hours after administration
  Concentrations in all analyzed tissues (liver, kidney, lungs): Significant concentrations
[1]; [3]
  Tissue distribution, Kidney: 0.35 mg/kg organ and 0.38 mg/kg organ
  Tissue distribution, Liver: 0.22 mg/kg organ and 0.15 mg/kg organ
  Tissue distribution, Lung: 0.19^a mg/kg organ and 0.53 mg/kg organ
[2]
  Clinical disease scores during EAE pathology: ameliorates clinical signs; also recorded: improved the clinical disease scores
